Experimental data: patent US4310532A, “Methods and piperidinyl-alkyl-benzamide composition for inhibiting H2 histamine receptors” (The University of Toledo, priority 1980, dated 1982)
Values after ≈ are worked out from the molar mass of the structure shown. Where two headings read alike, the source gives them in different places.

Tests used:
histamine H2 receptor [1] = test: histamine H2 antagonist activity in vivo: block of histamine-stimulated gastric acid secretion in the lumen-perfused anesthetized rat; set-up: species or system rat (Sprague Dawley); conditions: urethane-anesthetized rat; antagonist 0.24 mg/kg rapid I.V.; histamine 0.13 μmol/kg/hr; compounds as hydrochloride salts
Description: Sprague Dawley rats weighing between 150-200 g were used for the evaluations. Perfusion was carried out with 5% glucose solution at 37° C. Administration of histamine and test compounds was carried out by rapid I.V. injection via cannulated jugular vein. Doses of 0.13 μmol/kg/hr. of histamine were used, and 0.24 mg/kg of antagonist test compound.

isolated rat uterus = test: block of the contractile response to histamine of the isolated rat uterus; format: cell-based, rat (Sprague Dawley, female); conditions: read-out: EC50 (concentration of experimental compound required to block the contractile effect of histamine by 50%)
Description: Further evaluation involved testing the ability of the piperidinyl-alkyl-benzamides to block the response to histamine by the isolated rat uterus. Female Sprague Dawley rats weighing approximately 150 g were injected with diethylstilbesterol (0.15 mg/rat) fifteen hours prior to sacrifice. […] The results are expressed as the % change in the contractile response to histamine relative to placebo-histamine evaluation in Table III.

histamine H2 receptor [2] = molecular target: T1, histamine H2 receptor (Cavia porcellus, UniProt P47747); test: histamine H2 antagonism activity on the isolated guinea pig atrium (chronotropic response to histamine); format: cell-based, guinea pig (Hartley strain); conditions: experimental compound 10 μg/ml, histamine 0.05-2.5 μg/ml
T1 construct: histamine chronotropic response
Description: The histamine H2 antagonism activity of these piperidinyl-alkyl-benzamide compounds was tested on the isolated guinea pig atrium. The atria from Hartley strain guinea pigs were dissected and suspended in 25 ml of McEwen's solution and attached to a transducer. Spontaneous atrial rate was determined from the recorder tracing. Chronotropic responses to increasing concentrations of histamine (0.05-2.5 μg/ml) were evaluated in the presence of placebo or experimental compound. Results are expressed in Table I as the ratio of concentration of histamine required to increase atrial rate by 50 beats/minute:concentration of histamine required to increase atrial rate by 50 beats/minute in the presence of experimental compound, 10 μg/ml.

histamine H2 receptor [3] = test: histamine H2-receptor antagonist activity in standard pharmacological tests (Tables I, II and III); conditions: result in words
Description: The histamine H2 antagonism activity of these piperidinyl-alkyl-benzamide compounds was tested on the isolated guinea pig atrium. The atria from Hartley strain guinea pigs were dissected and suspended in 25 ml of McEwen's solution and attached to a transducer. Spontaneous atrial rate was determined from the recorder tracing. Chronotropic responses to increasing concentrations of histamine (0.05-2.5 μg/ml) were evaluated in the presence of placebo or experimental compound. […]
The piperidine-alkyl-benzamides, as their hydrochloride salts, were evaluated for histamine H2 antagonist activity, in vivo, by their ability to block the stimulation of acid secretion by histamine from the lumen-perfused anesthetized (urethane) rat preparation as described in Ash and Shield, Br. J. Pharmacol. Chemotherapy 27, 427 (1966) and Durant, et al., J. Med. Chem. 18, 905 (1975). […]
Further evaluation involved testing the ability of the piperidinyl-alkyl-benzamides to block the response to histamine by the isolated rat uterus. […] Contractile responses were evaluated after the addition of placebo; after the addition of experimental compounds; and after the addition of histamine (25 μg/ml). The results are expressed as the % change in the contractile response to histamine relative to placebo-histamine evaluation in Table III. […]
The product was evaluated according to Tables I, II, and III above.

[4] = isolated rat uterus, histamine 25 μg/ml, diethylstilbesterol-primed

T1 sequence (P47747 whole entry): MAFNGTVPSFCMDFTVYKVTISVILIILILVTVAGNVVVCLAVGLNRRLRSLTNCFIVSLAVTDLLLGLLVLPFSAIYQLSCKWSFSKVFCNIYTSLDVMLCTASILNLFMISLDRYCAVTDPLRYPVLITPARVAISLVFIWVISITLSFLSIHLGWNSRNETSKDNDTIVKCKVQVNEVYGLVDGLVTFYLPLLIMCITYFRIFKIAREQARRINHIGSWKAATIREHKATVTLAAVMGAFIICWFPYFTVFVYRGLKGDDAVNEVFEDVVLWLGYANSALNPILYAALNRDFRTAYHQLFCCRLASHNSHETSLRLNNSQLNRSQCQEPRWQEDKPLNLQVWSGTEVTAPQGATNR

Compound	MEAN % INHIBITION OF GASTRIC ACID SECRETION (histamine H2 receptor [1]) [%]	EC50 (isolated rat uterus; Rattus norvegicus) [µg/mL]	HISTAMINE RATIO (concentration of histamine required to increase atrial rate by 50 beats/minute : same in the presence of experimental compound) (histamine H2 receptor [2])	histamine H2-receptor antagonist activity (histamine H2 receptor [3])	EC50 (isolated rat uterus; [4]) [µg/mL]
CN/C(=N/CCSCc1nc[nH]c1C)NC#N [Cimetidine, reference compound]	78 ± 8	0.3 (≈ 1.19 µM)	0.0025	–	–
O=C(NCC1CCNCC1)c1ccccc1 [Example 1, N-(4-Piperidinylmethyl)benzamide]	40 ± 6	–	0.005	significant amount of histamine H2 --receptor antagonist activity	0.38 (≈ 1.74 µM)
Cc1ccc(C(=O)NCC2CCNCC2)cc1 [Example 2, N-(4-piperidinylmethyl)-p-methylbenzamide]	52 ± 5	–	0.004	–	0.31 (≈ 1.33 µM)
